Consider one compound from ChEMBL document CHEMBL5727462, “Benzimidazole derivates useful as inhibitors of mammalian histone deacetylase activity” (2019).

A word on the IC50: it is the concentration at which inhibition is half-maximal.

The target in the test is T1, Protein deacetylase HDAC6 (Homo sapiens, UniProt Q9UBN7).
T1 sequence (Q9UBN7 whole entry): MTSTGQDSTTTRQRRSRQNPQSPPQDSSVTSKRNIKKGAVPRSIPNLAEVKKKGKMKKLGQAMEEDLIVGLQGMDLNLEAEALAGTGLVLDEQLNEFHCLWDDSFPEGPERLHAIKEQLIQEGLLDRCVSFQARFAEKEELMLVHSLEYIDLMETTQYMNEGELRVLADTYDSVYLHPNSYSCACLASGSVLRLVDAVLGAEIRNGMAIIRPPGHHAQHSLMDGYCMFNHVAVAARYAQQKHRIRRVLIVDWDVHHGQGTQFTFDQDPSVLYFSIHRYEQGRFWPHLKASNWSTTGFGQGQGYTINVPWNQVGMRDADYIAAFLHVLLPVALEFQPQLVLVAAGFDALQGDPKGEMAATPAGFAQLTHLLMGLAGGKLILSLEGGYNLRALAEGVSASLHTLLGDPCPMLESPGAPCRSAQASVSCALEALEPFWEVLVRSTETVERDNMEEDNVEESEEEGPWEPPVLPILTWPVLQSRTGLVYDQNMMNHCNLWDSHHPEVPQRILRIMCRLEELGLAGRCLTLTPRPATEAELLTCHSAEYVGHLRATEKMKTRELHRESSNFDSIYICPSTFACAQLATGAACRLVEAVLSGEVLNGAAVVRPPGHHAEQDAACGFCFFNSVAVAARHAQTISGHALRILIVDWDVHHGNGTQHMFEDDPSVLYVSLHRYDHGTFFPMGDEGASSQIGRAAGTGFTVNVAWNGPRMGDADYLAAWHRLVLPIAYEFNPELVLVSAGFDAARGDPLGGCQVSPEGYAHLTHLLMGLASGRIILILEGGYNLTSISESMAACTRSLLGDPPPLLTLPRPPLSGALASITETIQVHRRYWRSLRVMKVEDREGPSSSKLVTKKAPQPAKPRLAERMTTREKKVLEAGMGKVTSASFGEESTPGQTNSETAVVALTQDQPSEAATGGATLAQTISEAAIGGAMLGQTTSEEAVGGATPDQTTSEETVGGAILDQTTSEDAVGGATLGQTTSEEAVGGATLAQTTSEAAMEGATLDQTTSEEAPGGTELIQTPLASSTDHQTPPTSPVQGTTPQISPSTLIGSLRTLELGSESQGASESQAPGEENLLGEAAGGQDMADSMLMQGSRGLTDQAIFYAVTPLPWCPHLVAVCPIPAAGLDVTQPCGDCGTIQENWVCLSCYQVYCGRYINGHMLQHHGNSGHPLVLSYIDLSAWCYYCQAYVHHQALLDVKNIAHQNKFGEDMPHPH
Put plainly: In vitro enzymatic HDACs assays: All Examples were tested in HDAC1, 2, 3, 6 and 8 in vitro enzymatic assays. The assay principle is well known (Hauser et al. 2009, Bradner et al. 2010) and all necessary reagents like enzymes, substrates, developer and reference compounds are commercially available (see e.g. BPS Biosciences http://www.bpsbioscience.com/). A series of dilutions of the compounds were prepared with a top concentration of 200 μM (2 μM for HDAC6). The enzymatic reactions were conducted in a mixture containing assay buffer, bovine serum albumin, HDAC substrate, and a test compound. After enzymatic reaction, developer was added and after an additional incubation time, fluorescence intensity was measured at an excitation wavelength of 360 nm and an emission wavelength of 460 nm. A selection of the Examples were tested in a full HDAC panel containing HDAC1, 2, 3, 4, 5, 6, 7, 8, 9, 10 and 11 in vitro enzymatic assays. The tests were performed as above except that a series of dilutions of the compounds were prepared with a top concentration of 10 μM for all HDACs.

Structures are written as SMILES.

With `O=C(NO)c1ccc2nc(-c3ccc(-c4ccccc4)c(F)c3)[nH]c2c1`, the IC50 was 19 nM.
